Where two headings read alike, the source gives them in different places.
System: acetylcholine-bromide-induced abdominal constriction (writhing)
Assay: Mouse Acetylcholine-Bromide-Induced Abdominal Constriction Assay
Format: in vivo
Conditions: for ED50: po, read-out: ED50 (dose which inhibits writhing by 50%)
Procedure: Mouse Acetylcholine-Bromide-Induced Abdominal Constriction Assay:
The mouse acetylcholine-induced abdominal constriction assay, as described by Collier et al. in Brit. J. Pharmacol. Chem. Ther., 32:295-310, 1968, with minor modifications was the test used to assess analgesic potency. The test drugs or appropriate vehicle were administered orally (p.o.) and 30 minutes later the animals received an intraperitoneal (i.p.) injection of 5.5 mg/kg acetylcholine bromide (Matheson, Coleman and Bell, East Rutherford, NJ). The mice were then placed in groups of four into glass bell jars and observed for a ten minute observation period for the occurrence of a writhe (defined as a wave of constriction and elongation passing caudally along the abdominal wall, accompanied by a twisting of the trunk and followed by extension of the hind limbs). The percent inhibition of writhing (equated to % analgesia) was calculated as follows: The % inhibition of writhing, i.e., % analgesia, is equal to the difference between the No. of control animals writhing and the No. of drug-treated animals writhing times 100 divided by the No. of control animals writhing.
At least 20 animals were used for control and in each of the drug treated groups. Four doses were used to determine each dose response curve and ED50 (that does which inhibits writhing by 50%). The ED50 values and their 95% fiducial limits were determined by a computer assisted probit analysis.

| Compound | ED50 (Mus musculus) [mg/kg] | also measured |
| --- | --- | --- |
| Clc1cccc(Cl)c1[C@@H]1CCC[C@@H]2CCCCN21.[O-][Cl+3]([O-])([O-])O (relative stereo) [Example 1e, trans-4-(2,6-dichlorophenyl)octahydro-2H-quinolizine perchlorate] | 5 |  |
| Cl.c1ccc(Oc2ccc([C@@H]3CCC[C@@H]4CCCCN43)cc2)cc1 (relative stereo) [Example 2e, trans-Octahydro-4-(4-phenoxyphenyl)-2H-quinolizine Hydrochloride] |  | ED50 (mouse, p.o., 30 minutes before i.p. 5.5 mg/kg acetylcholine bromide, ten minute observation): 8 mg/kg |
| COc1cccc([C@@H]2CCC[C@@H]3CCCCN32)c1.Cl (relative stereo) [Example 3e, trans-Octahydro-4-(3-methoxyphenyl)-2H-quinolizine Hydrochloride] |  | % inhibition of writhing (% analgesia), printed in ED50 column (mouse, p.o., at 30 mg/Kg, 30 minutes before i.p. 5.5 mg/kg acetylcholine bromide, ten minute observation): 40% |
| Cl.Ic1ccccc1[C@@H]1CCC[C@@H]2CCCCN21 (relative stereo) [Example 4e, trans-Octahydro-4-(2-iodophenyl)-2H-quinolizine Hydrochloride] | 30 |  |
| Brc1ccccc1[C@@H]1CCC[C@@H]2CCCCN21.Cl (relative stereo) [Example 5e, trans-4(2-Bromophenyl)octahydro-2H-quinolizine Hydrochloride] | 23 |  |
